ChEMBL document CHEMBL3885881, “DrugMatrix”

Species: Rattus norvegicus
Experiment: DrugMatrix - Regimen: Daily Repeat
Type: toxicity, organism-based, Sprague-Dawley
Set-up: regimen Daily Repeat, gender Male, age 6-8 weeks
Conditions: in vivo, po, route oral GAVAGE, vehicle 100 % WATER; for ABSOLUTE BASOPHIL / ABSOLUTE EOSINOPHIL / ABSOLUTE LYMPHOCYTE / ABSOLUTE MONOCYTE / ABSOLUTE SEGMENTED NEUTROPHIL / BASOPHIL / EOSINOPHIL / ERYTHROCYTE COUNT / HEMATOCRIT / HEMOGLOBIN / LEUKOCYTE COUNT / LYMPHOCYTE / MEAN CORPUSCULAR HEMOGLOBIN / MEAN CORPUSCULAR HEMOGLOBIN CONCENTRATION / MEAN CORPUSCULAR VOLUME / MONOCYTE / NEUTROPHIL / NUCLEATED RED BLOOD CELLS / PLATELET COUNT: tissue Blood; for ALANINE AMINOTRANSFERASE / ALBUMIN / ALKALINE PHOSPHATASE / ASPARTATE AMINOTRANSFERASE / BLOOD UREA NITROGEN / CARBON DIOXIDE / CHLORIDE / CHOLESTEROL / CREATINE PHOSPHOKINASE / CREATININE / GLUCOSE / LIPASE / PHOSPHORUS / POTASSIUM / SODIUM / TOTAL BILIRUBIN / TOTAL PROTEIN / URIC ACID: tissue Plasma
[1] = 175 mg/kg, 120 h, dose level High, time 5 day
[2] = […], 72 h, dose 5.7 mg/Kg, dose level Low, time 3 day
[3] = […], 120 h, dose 5.7 mg/Kg, dose level Low, time 5 day

## CC(C)NCC(O)COc1cccc2ccccc12 (stereo unspecified) [PROPRANOLOL]
[1]
  ABSOLUTE BASOPHIL: 0 CELLS/uL
  ABSOLUTE EOSINOPHIL: 0 CELLS/uL
  ABSOLUTE LYMPHOCYTE: 13526.33 CELLS/uL
  ABSOLUTE MONOCYTE: 232.67 CELLS/uL
  ABSOLUTE SEGMENTED NEUTROPHIL: 741 CELLS/uL
  BASOPHIL: 0%
  EOSINOPHIL: 0%
  ERYTHROCYTE COUNT: 5.28 x10E6/uL
  HEMATOCRIT: 34.3%
  HEMOGLOBIN: 13.2 G/DL
  LEUKOCYTE COUNT: 14.5 x10E3/uL
  LYMPHOCYTE: 93.33%
  MEAN CORPUSCULAR HEMOGLOBIN: 25 pg
  MEAN CORPUSCULAR HEMOGLOBIN CONCENTRATION: 38.5 G/DL
  MEAN CORPUSCULAR VOLUME: 65 fL
  MONOCYTE: 1.67%
  NEUTROPHIL: 5%
  NUCLEATED RED BLOOD CELLS: 0 /100WBC
  PLATELET COUNT: 1299 x10E3/uL
  ALANINE AMINOTRANSFERASE: 57.33 u/L
  ALBUMIN: 3.97 G/DL
  ALKALINE PHOSPHATASE: 397.33 u/L
  ASPARTATE AMINOTRANSFERASE: 73.67 u/L
  BLOOD UREA NITROGEN: 17 mg/dL
  CARBON DIOXIDE: 29 mmol/L
  CHLORIDE: 101 MEQ/L
  CHOLESTEROL: 78.67 mg/dL
  CREATINE PHOSPHOKINASE: 314.67 u/L
  CREATININE: 0.18 mg/dL
  GLUCOSE: 149 mg/dL
  LIPASE: 10 u/L
  PHOSPHORUS: 13.43 mg/dL
  POTASSIUM: 6.7 MEQ/L
  SODIUM: 144.77 MEQ/L
  TOTAL BILIRUBIN: 0.2 mg/dL
  TOTAL PROTEIN: 5.6 G/DL
  URIC ACID: 1.33 mg/dL
[2]
  ABSOLUTE BASOPHIL: 0 CELLS/uL
  ABSOLUTE EOSINOPHIL: 0 CELLS/uL
  ABSOLUTE LYMPHOCYTE: 11391.33 CELLS/uL
  ABSOLUTE MONOCYTE: 180.33 CELLS/uL
  ABSOLUTE SEGMENTED NEUTROPHIL: 2228.33 CELLS/uL
  BASOPHIL: 0%
  EOSINOPHIL: 0%
  ERYTHROCYTE COUNT: 5.65 x10E6/uL
  HEMATOCRIT: 35.6%
  HEMOGLOBIN: 13.2 G/DL
  LEUKOCYTE COUNT: 13.8 x10E3/uL
  LYMPHOCYTE: 82.33%
  MEAN CORPUSCULAR HEMOGLOBIN: 23.37 pg
  MEAN CORPUSCULAR HEMOGLOBIN CONCENTRATION: 37.07 G/DL
  MEAN CORPUSCULAR VOLUME: 62.97 fL
  MONOCYTE: 1.33%
  NEUTROPHIL: 16.33%
  NUCLEATED RED BLOOD CELLS: 0.33 /100WBC
  PLATELET COUNT: 1291 x10E3/uL
  ALANINE AMINOTRANSFERASE: 52.67 u/L
  ALBUMIN: 4.07 G/DL
  ALKALINE PHOSPHATASE: 368.67 u/L
  ASPARTATE AMINOTRANSFERASE: 80 u/L
  BLOOD UREA NITROGEN: 14 mg/dL
  CARBON DIOXIDE: 27.67 mmol/L
  CHLORIDE: 102.67 MEQ/L
  CHOLESTEROL: 83 mg/dL
  CREATINE PHOSPHOKINASE: 155.33 u/L
  CREATININE: 0.26 mg/dL
  GLUCOSE: 153.33 mg/dL
  LIPASE: 11.33 u/L
  PHOSPHORUS: 13.73 mg/dL
  POTASSIUM: 6.83 MEQ/L
  SODIUM: 146 MEQ/L
  TOTAL BILIRUBIN: 0.2 mg/dL
  TOTAL PROTEIN: 5.83 G/DL
  URIC ACID: 1.7 mg/dL
[3]
  ABSOLUTE BASOPHIL: 0 CELLS/uL
  ABSOLUTE EOSINOPHIL: 0 CELLS/uL
  ABSOLUTE LYMPHOCYTE: 12645 CELLS/uL
  ABSOLUTE MONOCYTE: 541.67 CELLS/uL
  ABSOLUTE SEGMENTED NEUTROPHIL: 1413.33 CELLS/uL
  BASOPHIL: 0%
  EOSINOPHIL: 0%
  ERYTHROCYTE COUNT: 5.27 x10E6/uL
  HEMATOCRIT: 34.07%
  HEMOGLOBIN: 12.83 G/DL
  LEUKOCYTE COUNT: 14.6 x10E3/uL
  LYMPHOCYTE: 87%
  MEAN CORPUSCULAR HEMOGLOBIN: 24.37 pg
  MEAN CORPUSCULAR HEMOGLOBIN CONCENTRATION: 37.77 G/DL
  MEAN CORPUSCULAR VOLUME: 64.5 fL
  MONOCYTE: 3.67%
  NEUTROPHIL: 9.33%
  NUCLEATED RED BLOOD CELLS: 0.33 /100WBC
  PLATELET COUNT: 1063 x10E3/uL
  ALANINE AMINOTRANSFERASE: 45.33 u/L
  ALBUMIN: 4.27 G/DL
  ALKALINE PHOSPHATASE: 387.67 u/L
  ASPARTATE AMINOTRANSFERASE: 114 u/L
  BLOOD UREA NITROGEN: 22.33 mg/dL
  CARBON DIOXIDE: 21.67 mmol/L
  CHLORIDE: 99.67 MEQ/L
  CHOLESTEROL: 67.33 mg/dL
  CREATINE PHOSPHOKINASE: 1341.67 u/L
  CREATININE: 0.51 mg/dL
  GLUCOSE: 217 mg/dL
  LIPASE: 11.67 u/L
  PHOSPHORUS: 14.5 mg/dL
  POTASSIUM: 7.21 MEQ/L
  SODIUM: 143.73 MEQ/L
  TOTAL BILIRUBIN: 0.17 mg/dL
  TOTAL PROTEIN: 6.07 G/DL
  URIC ACID: 2.67 mg/dL
